This is an account of results in patent publication US4599228A, “Antimicrobial agent” (Vipont Laboratories, Inc., priority 1984, dated 1986).

Entries after “also recorded” stand apart in the source; their conditions may differ. Like-named read-outs stand apart in the source and are kept apart here.

The test system of series [1] is plaque forming microorganisms freshly collected from human dental plaque. In words: Dental plaque reduction in vitro. The class given is cell-based.
Another series has as its system infection. In words: In vivo antimicrobial action and tolerability (clinical studies).
Series [2] deals with Streptococcus mutans. In words: Inhibitory concentration in vitro, separate test. The class given is cell-based. Here is the method: (§1) A separate test was conducted to determine the inhibitory concentration of sanguinarine chloride alone. These concentrations, for microorganisms in vitro, are as follows: […]
Series [3] relates to Staphylococcus aureus. In words: Inhibitory concentration in vitro, separate test. The class given is cell-based. Here is the method: as §1
The test system of another series is Candida albicans. In words: Inhibitory concentration in vitro, separate test. The class given is cell-based. Here is the method: as §1
Series [4] deals with Escherichia coli. In words: Inhibitory concentration in vitro, separate test. The class given is cell-based. Here is the method:
as §1

For series [5], the system named is dental plaque / plaque forming microorganisms. In words: In vivo plaque, gingivitis and periodontal disease treatment of dogs and humans.
Series [6] concerns gingivitis, plaque and pocket depth in dogs. In words: Oral Clinical Studies - Beagles (dogs). The class given is in vivo, beagle dogs. Set-up: Mean Gingivitis Scores / Mean Plaque Scores: scale not given here. The following applies: for Mean Gingivitis Scores / Mean Plaque Scores / Mean Pocket Depths / gingivitis, activity in words / return of dental plaque, activity in words: beagles; for Mean Gingivitis Scores / Mean Plaque Scores / Mean Pocket Depths: 0.1% sanguinarine chloride and/or 2.7% zinc chloride; for gingivitis, activity in words / return of dental plaque, activity in words: four weeks of treatment. Here is the method: The dogs were treated topically once daily with the respective test formulation.

The next series deals with microorganisms. In words: General antimicrobial activity in vitro. The class given is cell-based. The text has this:
When zinc chloride was replaced with a fluoride salt in the present preparations, the activity of the preparation against microorganisms believed to be associated with the causation of dental caries and periodontal disease (Streptococcus mutans), as well as other microorganisms, remained identical.

In series [7] the test system is Streptococcus mutans. In words: Mean inactivating dose in vitro. The class given is cell-based. The following applies: per ml of media. Here is the method: (§2) In order to illustrate the antimicrobial effectiveness of the composition according to the present invention, a series of in vitro and in vivo tests were performed.
The next series concerns Proteus vulgaris. In words: Mean inactivating dose in vitro. The class given is cell-based. The following applies: per ml of media. Here is the method:
as §2

For series [8], the system named is Staphylococcus aureus. In words: Mean inactivating dose in vitro. In kind it is cell-based. The following applies: per ml of media. Here is the method: as §2
The next series relates to Klebsiella pneumoniae. In words: Mean inactivating dose in vitro. In kind it is cell-based. The following applies: per ml of media. Here is the method:
as §2

Another series deals with Saccharomyces cerevisiae. In words: Mean inactivating dose in vitro. The following applies: per ml of media. The class given is cell-based. Here is the method: as §2
Another series deals with Streptococcus faecalis. In words: Mean inactivating dose in vitro. In kind it is cell-based. The following applies: per ml of media. Here is the method:
as §2

The test system of a further series is Bacillus subtilis. In words: Mean inactivating dose in vitro. In kind it is cell-based. The following applies: per ml of media. Here is the method:
as §2

Series [9] concerns Escherichia coli. In words: Mean inactivating dose in vitro. The class given is cell-based. The following applies: per ml of media. Here is the method: as §2
For another series, the system named is Pseudomonas aeruginosa. In words: Mean inactivating dose in vitro. In kind it is cell-based. The following applies: per ml of media. Here is the method: as §2
For another series, the system named is fungi and protozoa. The following applies: in solution; cited from earlier work.
Setting [10] is: 0 (start), baseline, topical once daily.
Where [11] appears, read: after 4 weeks, topical once daily, untreated 0.91.
[12] abbreviates: after 4 weeks, topical once daily, untreated 1.458.
The mark [13] stands for this setting: after 4 weeks, topical once daily, untreated 12.408.

As to `C[n+]1cc2c3c(ccc2c2ccc4cc5c(cc4c21)OCO5)OCO3` [Sanguinarine chloride, sanguinarine chloride], the “comparison with chlorhexidine (Hibitane), inhibition of plaque forming microorganisms” value in series [1] is on record as “compared favorably in vitro to chlorhexidine”. Moreover, the “reduction of dental plaque” value in [1] (25 micrograms per milliliter) was determined as 100%. Moreover, the “in vivo effectiveness / antimicrobial action” value in the series on infection is “only slightly effective or not at all; also recorded: only slightly antimicrobial, very slow acting, or had no effect on the course of the infection at all”. Besides, the MIC (in general, the lowest concentration found to suppress growth) stood at 50 µg/mL in the series with Streptococcus mutans [2], 10 µg/mL in the series with Staphylococcus aureus [3], 100 µg/mL in the series on Candida albicans and 100 µg/mL against Escherichia coli [4]. Besides, the “effect against plaque forming microorganisms in vivo” value in series [5] (in vivo) is given as “ineffective against plaque forming microorganisms”. Besides, in [5] (repeated or continuous treatment of affected area, dogs and humans), the “effect on dental plaque, gingivitis and periodontal disease” value is listed as “did not reduce dental plaque or alleviate the symptoms of gingivitis or periodontal disease; also recorded: did not prevent the accumulation of dental plaque on teeth or prevent the occurrence of periodontal disease”. The “Mean Gingivitis Scores” value is reported as 0.495 in series [6] (setting [10]) and 0.942 in [6] (setting [11]). Besides, the results for the “Mean Plaque Scores” value in [6] (setting [10]) and in series [6] (setting [13]) were 8.885 and 12.89, respectively. The results for the “Mean Pocket Depths” value in series [6] (setting [10]) and in series [6] (setting [12]) were 1.415 and 1.48, respectively. The “plaque and gingivitis scores, rank among groups” value in series [6] (24 male beagle dogs, after four weeks, topical once daily) is “highest”. For the same compound, the “gingivitis, activity in words” value in [6] was “no activity in vivo at all”. Also, the “return of dental plaque, activity in words” value in series [6] is given as “not active in vivo”. The antimicrobial properties entry in the series with microorganisms is “strong antimicrobial properties”; with microorganisms (listed as sanguinarine chloride), “quite effective against microorganisms”.

Take `[Cl-].[Cl-].[Zn+2]` [Zinc chloride, zinc chloride, reference compound]: the Mean inactivating dose in the series on Streptococcus mutans [7] was 1,563 μg/ml; in the series with Proteus vulgaris it was 12,500 μg/ml; in the series with Staphylococcus aureus [8] it was 6,250 μg/ml; with Klebsiella pneumoniae it was 3,125 μg/ml; in the series with Saccharomyces cerevisiae, 6,250 μg/ml; with Streptococcus faecalis it was 25,000 μg/ml. Also, the Mean inactivating dose was 25,000 μg/ml in the series on Bacillus subtilis, 6,250 μg/ml in the series on Escherichia coli [9] and 3,500 μg/ml in the series on Pseudomonas aeruginosa. Besides, the “speed of action in vivo” value with infection is given as “slow acting in vivo as an antimicrobial agent”. Also, the “tissue damage / undesirable side effects” value with infection (concentrations required for antimicrobial action) was “caused blanching of tissue and, in some cases, chemical burns and other tissue damage”. The “Mean Gingivitis Scores” value in [6] (setting [10]) was 0.44; in series [6] (setting [11]), 0.75. Moreover, the “Mean Plaque Scores” value in [6] (setting [10]) is listed as 8.76; in [6] (setting [13]), 10.15. Besides, the “Mean Pocket Depths” value in series [6] (setting [10]) is listed as 1.46; in [6] (setting [12]), 1.37. The “gingivitis, activity in words” value in [6] was “slightly active”. Besides, the “return of dental plaque, activity in words” value in series [6] was “slightly preventive”. For the same compound, in the series on microorganisms, the antimicrobial properties result is on record as “antimicrobial properties only in high concentrations”.

For `COc1ccc2c(c[n+](C)c3c4cc5c(cc4ccc23)OCO5)c1OC` [chelerythrine chloride], the antimicrobial properties entry with microorganisms is on record as “strong antimicrobial properties”.

As for `C[n+]1cc2c3c(ccc2c2ccc4cc5c(cc4c21)OCO5)OCO3` [sanguinarine], in the series with fungi and protozoa, the “antifungal and antiprotozoan properties” value was “some antifungal and antiprotozoan properties”.
